Patent EP1296672B2, “STABLE PHARMACEUTICAL PRODUCT AND FORMULATION” (LEK Pharmaceuticals d.d., priority 2000, dated 2001)
Blank lines part the entries; values can stand above or below the compound they belong to.

Experiments:
[1] = pH of unstabilized pravastatin Na crystals exposed to air atmosphere in different packagings; type: physicochemical; details: for pH: exposed to air, pH measured in 5% aqueous solution
Experimental: Crystals of pravastatin Na were prepared as follows: […] The resulting clear yellow solution was cooled to 8°C and allowed to stand overnight. Formed radiating clusters of thin, long needle-like crystals were filtered, washed with ethyl acetate (20 ml) and dried. […]

[2] = pH of pravastatin Na crystals exposed to pure carbon dioxide in different packagings; type: physicochemical; details: unstabilized pravastatin Na, carbon dioxide atmosphere, 5% aqueous solution
Experimental: Therefore the samples, in case of experiments where the correspondingly stabilised pravastatin was used, were exposed to the atmosphere of pure carbon dioxide, so the changes in pH become evident in a relatively short period of time such as a day or two.
The crystals were formed by addition of 400 ml of ethyl acetate containing 2% of water.

[3] = Experimental: In Fig. 1a, a HPLC chromatogram of a freshly perpared sample of pravastating Na is shown. The same pravastating Na was exposed to carbon dioxide atmosphere for one hour, and then a further HPLC chromatogram was prepared (Fig. 1b).

pH ([1]; time 0 hours): 8.3
pH ([1]; time 24 hours): 7.6
SMILES: CC[C@H](C)C(=O)O[C@H]1C[C@H](O)C=C2C=C[C@H](C)[C@H](CC[C@@H](O)C[C@@H](O)CC(=O)[O-])[C@H]21.[Na+] [1a, pravastatin Na]

pH ([1]; time 0 hours): 8.3
pH ([1]; time 24 hours): 7.9
SMILES: CC[C@H](C)C(=O)O[C@H]1C[C@H](O)C=C2C=C[C@H](C)[C@H](CC[C@@H](O)C[C@@H](O)CC(=O)[O-])[C@H]21.[Na+] [1b, pravastatin Na]

pH ([2]; time 0 h): 7.60
pH ([2]; time 1 h): 7.30
pH ([2]; time 5 h): 7.14
pH ([2]; time 70 h): 7.14
SMILES: CC[C@H](C)C(=O)O[C@H]1C[C@H](O)C=C2C=C[C@H](C)[C@H](CC[C@@H](O)C[C@@H](O)CC(=O)[O-])[C@H]21.[Na+] [2a, pravastatin Na]

pH of crystals ([1]; after one day): 7.6
pH of crystals ([1]; freshly prepared crystals): 8.3
SMILES: CC[C@H](C)C(=O)O[C@H]1C[C@H](O)C=C2C=C[C@H](C)[C@H](CC[C@@H](O)C[C@@H](O)CC(=O)[O-])[C@H]21.[Na+] [pravastatin Na]
degradation products (HPLC peaks) [3]: two different peaks in front of and three peaks after the peak of pravastatin Na appear
